Source: patent publication US20160235677A1, “METHOD OF CONVERTING A CRYSTALLINE COMPOUND TO AN AMORPHOUS COMPOUND, METHOD OF INCREASING THE SOLUBILITY OF A CRYSTALLINE COMPOUND IN A BIORELEVANT FLUID, AND NANOPARTICLES THAT ACHIEVE SUPERSATURATION” (Nanocopoeia, LLC., priority 2014, published 2016)
Values after ≈ are worked out from the molar mass of the structure shown. Counter-ions that a name gives are not always drawn. Like-named read-outs stand apart in the source and are kept apart here. Each block holds one molecule with its values, some of them ahead of it.

Assays:
[1] = XRD and DSC determinations of physical state of ENS-processed powders (Table B); type: physicochemical
Method: Thermal analysis is conducted using a TA Instruments Model Q200 DSC (New Castle, Del.) equipped with an RCS-90 refrigerated cooling system. Samples, in an amount of 3.5 mg±1.0 mg, are weighed into TA Instruments T-Zero aluminum pans and closed with lids. […] Nitrogen is used as the purge gas at a flow rate of 50 mL/min. All data analyses are performed using TA Universal Analysis 2000 software (TA Instruments, New Castle, Del.). T-Zero cell constant and temperature/enthalpy calibrations are conducted with the use of sapphire and indium standards, respectively.
X-ray powder diffraction is performed at room temperature using a Bruker D8 Discover using a Cu Kα radiation, point source filtered with a graphite monochromator and a Bruker Hi-Star two-dimensional x-ray detector (Bruker, Karlsruhe, Germany). Powder samples are pressed onto a sample holder made of single-crystal quartz cut off-axis. The reflected intensity is collected at 0.04° resolution from 2Θ=2° to 62° with an acquisition time of 20 minutes. Data analysis is performed using the JADE 8.0 software package (Materials Data Inc., Livermore, Calif.) with whole pattern fitting. The test method has a detection limit of 2% crystallinity.
A series of crystalline drug and polymer combinations were dissolved in solvents in the amounts and at the ratios set forth in Table B. The solutions were then sprayed using the ENS system described above. The resulting dry compounds were collected and analyzed according to the XRD, DSC and SEM test methods.

[2] = Dissolution in Biorelevant Media with pH Transition (itraconazole, FaSSGF to FaSSIF); type: physicochemical
Method: (§1) Dissolution testing, based on pH change from acidic-to-neutral media, is performed according to USP 29 Apparatus 2 Guidelines (United States Pharmacopeial Convention. Chapter <711> Dissolution, Stage 6 Harmonization, Official Dec. 1, 2011. USP website: http://www.usp.org/sites/default/files/usp_pdf/EN/USPNF/2011-02-25711DISSOLUTION.pdf).
Where specified below, the USP method was modified to use smaller 100 mL glass vessels with matching sized paddles operated at a […] speed of 100 rpm in biorelevant media using a VanKel 7000 Dissolution Tester (VanKel Technology Group, Gary, N.C.).
Biorelevant media is prepared using FaSSIF, FeSSIF & FaSSGF Powder (biorelevant.com) a commercial source of sodium taurocholate and lecithin, hereafter abbreviated “SIF Powder.” Fasted state simulated gastric fluid (FaSSGF) and Fasted state simulated intestinal fluid (FaSSIF) are prepared using the formula provided by the vendor at http://biorelevant.com/fassif-fessif-fassgf-dissolution-media/fasted-fed-state-simulated-intestinal-gastric-fluid/how-to-make/, after specifying the desired volume quantity of medium to be prepared. For example, for 500 mL of FaSSGF, the test medium contains sodium chloride, 1 g, and SIF Powder, 30 mg. Solids are dissolved in approximately 480 mL deionized water. The FaSSGF solution is adjusted to a final pH of 1.6 using concentrated hydrochloric acid, and brought to a final volume of 500 mL by adding deionized water.
For two-stage dissolution testing, which consists of a gastric stage followed by an intestinal phase, the compound of interest is first added to a volume of FaSSGF that is equivalent to ¾ of the final test volume. For example, if the test vessel is 100 mL, the volume of FaSSGF is 75 mL. After allowing dissolution to proceed for 2 hours or another specified time interval, 25 mL of a Transition Medium is added to create a final volume of 100 mL in this example, with a final pH of 6.5. The final medium is equivalent in composition to FaSSIF, as per the formula provided at the above link at biorelevant.com.
The Transition Medium is prepared first by making Transition Buffer, 500 mL, which contains sodium chloride, 9.37 g, sodium hydroxide, 2.5 g, sodium phosphate monobasic dihydrate, 8.94 g. […] Larger quantities are prepared as required, maintaining the relative amounts each of Transition Buffer and SIF Powder.
The dissolution test is performed by weighing the test formulation containing the test compound, adjusting weights to achieve an equivalent amount of test compound across the various test formulations. […] Starting time for the dissolution test is recorded with the addition of the first drop. […]

[3] = Equilibrium / saturation solubility in test media; type: physicochemical; conditions: ITZ, experimentally determined
[4] = itraconazole, cited from earlier work
[5] = itraconazole; cited from earlier work
[6] = oral, taken immediately after a full meal or with an acidic beverage; cited from earlier work
[7] = Dissolution in Buffer Media with pH Transition (itraconazole); type: physicochemical
Method: as §1
Where specified below, the USP method was modified to use smaller 100 mL glass vessels with matching sized paddles operated at a speed of 100 rpm in buffer media using a VanKel 7000 Dissolution Tester (VanKel Technology Group, Gary, N.C.).
Examples A2, A3, A5 and A6 and Controls A1-A6 were tested according to the Dissolution in Buffer Media with pH Transition Test method. […] The solution was left stirring for 120 minutes, after which 3 mL aliquots were drawn from each vessel. Immediately after the aliquots were removed from the vessels, 25 mL of 0.2 M tribasic sodium phosphate buffer was added to each vessel to produce in a dissolution media having a pH 6.8±0.05. Subsequently, 3 mL aliquots were drawn from each vessel after 135 min, 150 min, 180 min, 210 min, 240 min, and 300 min. The aliquots were then analyzed to determine the concentration of itraconazole present in the media. The results were recorded in μg/mL.
Since only one sample was collected before the pH transition, the AUC, Tmax and Cmax were calculated based on the results following pH transition.

[8] = itraconazole, assumed value; cited from earlier work
Caco-2 monolayers = assay: Caco-2 Monolayer Test Method; type: in vitro ADME; conditions: Caco-2, FIGS. 8A and 8B, result in words
Method: Caco-2 monolayers are prepared in Millipore 96-cell Caco-2 plates and are used after a 3-week differentiation period. The monolayers separate the apical, or donor well, from the basolateral, or recipient well. The buffer used for the apical side is 1.98 g/L glucose in 10 mM HEPES, Hank's Balanced Salt Solution (HBSS) lx, with calcium, magnesium, without phenol red (HyClone, Logan, Utah) pH 7.4. The impermeable dye Lucifer yellow (in an amount of 100 μM) is added to test monolayer integrity. The basolateral side buffer is buffer, pH 7.4, without dye. […] The amount of test powder is selected to assure that if the powder was completely dissolved, the amount is sufficient to achieve ˜12 to 13 times the saturation concentration of the compound of interest previously measured in HBSS (15 μg/mL), in other words, a supersaturated solution. […] Where the compound of interest is not a substrate for p-glycoprotein (pGP), B→A efflux is not measured.
Buffer test samples are added to apical wells at 1 h after preparation and buffer alone is added to the basolateral side. […] The plates are assumed to be intact if there is no increase in fluorescence from leaking Lucifer yellow dye from the apical side. Individual cell monolayers are assumed intact if there is no increase in fluorescence in aliquots taken from the basolateral wells. […]

[9] = Differential Scanning Calorimetry (DSC) crystallinity / physical state; type: physicochemical; conditions: griseofulvin formulations
Method: Controls and Examples were tested according to the DSC test method.

[10] = after pH transition to FaSSIF pH 6.5±0.05

SMILES: CCC(C)n1ncn(-c2ccc(N3CCN(c4ccc(OCC5COC(Cn6cncn6)(c6ccc(Cl)cc6Cl)O5)cc4)CC3)cc2)c1=O (stereo not drawn) [Control A1, Itraconazole]
Neutral Phase AUC (SD) (μg · hr/mL) [2, 10]: 0.75 (0.221) μg · hr/mL | Neutral Phase Cmax [2, 10]: 291 ng/mL | Neutral Phase Tmax [2, 10]: 2.25 h | Acid Phase C120 ([2]; itraconazole concentration at 120 minutes in 75 mL FaSSGF, 6 mg itraconazole equivalent): 0.112 µg/mL | solubility in FaSSIF medium [3]: 0.08 µg/mL (≈ 0.113 µM) | reported aqueous solubility ([4]; acidic media): 4 µg/mL | reported aqueous solubility ([4]; neutral pH): 0.001 µg/mL | log P [5]: 6.2 | pKa [5]: 3.7 | maximum absorption [6]: 55% | Neutral Phase Tmax ([7]; buffer, after pH transition to 6.8±0.05): 3.50 h | Neutral Phase AUC (SD) (μg · hr/mL) ([7]; buffer, after pH transition to 6.8±0.05, up to 300 min): 0.218 (0.078) μg · hr/mL | Neutral Phase Cmax ([7]; buffer, after pH transition to 6.8±0.05 with 0.2 M tribasic sodium phosphate): 61 ng/mL | Acid Phase C120 ([7]; itraconazole concentration at 120 minutes in 75 mL 0.1 N HCl pH 1, 6 mg itraconazole equivalent): 1.50 µg/mL | assumed solubility in 0.1 N HCl [8]: 4 µg/mL

SMILES: CN1CC2c3ccccc3Oc3ccc(Cl)cc3C2C1 (stereo not drawn) [Asenapine Maleate]
XRD and DSC determinations of physical state (amorphous or crystalline) [1]: with largely amorphous material.

SMILES: O=C(O)Cc1ccccc1Nc1c(Cl)cccc1Cl [Diclofenac]
XRD and DSC determinations of physical state (amorphous or crystalline) [1]: XRD and DSC consistent with crystalline

Further lines, with some results ahead:

XRD and DSC determinations of physical state (amorphous or crystalline) [1]: mainly amorphous material.
SMILES: C[C@@H](O[C@H]1OCCN(Cc2n[nH]c(=O)[nH]2)[C@H]1c1ccc(F)cc1)c1cc(C(F)(F)F)cc(C(F)(F)F)c1 [Aprepitant]

calculated levels of crystallinity based on DSC [9]: 100%
SMILES: COC1=CC(=O)C[C@@H](C)[C@]12Oc1c(Cl)c(OC)cc(OC)c1C2=O [Control 3, griseofulvin]
initial concentration and flux compared with unprocessed GF powder (Caco-2 monolayers): performed similarly to unprocessed GF powder

XRD and DSC determinations of physical state (amorphous or crystalline) [1]: with mainly amorphous material.
SMILES: COc1ccc2c(c1)c(CC(=O)O)c(C)n2C(=O)c1ccc(Cl)cc1 [Indomethacin]
